Like-named read-outs stand apart in the source and are kept apart here.
How the values were obtained:
stool odor compounds [1] = details: 3 weeks; for Alcohols / Aldehydes / Carboxylic acids / Esters / Heterocycles / Indoles / Ketones / Phenols / Thiols/Sulfides: dog stool, area under chromatogram peak
Experimental: (§1) An experiment was conducted to characterize the effects of zinc acetate on stool odor compounds in dogs. To a control food, which was a dry food composed of kibbles containing a base level of 150 ppm zinc in the form of zinc acetate, various amounts of zinc in the form of zinc acetate were added as a coating on the kibbles. This was done by hand coating (sprinkling) fine zinc acetate powder on the kibble in a rotating drum in a two-step coating process after all other topical ingredients had been added by in-line enrobing. Ten dogs were fed control food with no added zinc, ten dogs were fed control food with 400 ppm zinc added, ten dogs were fed control food with 600 ppm zinc added, and ten dogs were fed control food with 900 ppm zinc added. The dogs were fed one of these diets for three weeks. At the end of three weeks, stool samples were collected and analyzed by putting a standard amount of stool in a glass container and incubating a solid phase microextraction fiber in the headspace. Volatiles bound to the fiber were eluted onto a gas chromatograph for analysis. The compounds were identified using a […].
(§2) The numbers indicate relative differences as measured by the area under the peak in a chromatogram.

stool odor compounds [2] = details: one month; for Alcohols / Aldehydes / Carboxylic acids / Esters / Heterocycles / Indoles / Ketones / Phenols / Thiols/Sulfides: cat stool, area under chromatogram peak
Experimental: as §1
An experiment was conducted to characterize the effects of zinc acetate on stool odor compounds in cats. To a control food, which was a dry food composed of kibbles containing a base level of 160 ppm zinc in the form of zinc acetate, various amounts of zinc were added in the form of zinc acetate as in Example 1. Eight cats were fed control food with no added zinc, eight cats were fed control food with 860 ppm zinc acetate added, seven cats were fed control food with 1200 ppm zinc acetate added, and seven cats were fed control food with 1800 ppm zinc acetate added. The cats were fed one of these diets for one month. At the end of the month, stool samples were collected and analyzed as described in Example 1.
as §2

flatulence = details: dogs, literature report; cited from earlier work
[3] = 400 ppm added zinc on control food
[4] = 600 ppm added zinc on control food
[5] = 900 ppm added zinc on control food
[6] = 860 ppm added zinc on control food
[7] = 1200 ppm added zinc on control food
[8] = 1800 ppm added zinc on control food

## CC(=O)[O-].CC(=O)[O-].[Zn+2] [zinc acetate]
Stool odor compounds [1]; [3]
  Alcohols: 17.3 ± 12.5 ×10^5
  Aldehydes: 0.45 ± 0.3 ×10^3
  Carboxylic acids: 3.79 ± 3.55 ×10^4
  Esters: 34.3 ± 34.0 ×10^5
  Heterocycles: 0.94 ± 0.37 ×10^4
  Indoles: 2.64 ± 2.19 ×10^4
  Ketones: 179 ± 0.89 ×10^6
  Phenols: 9.62 ± 6.0 ×10^4
  Thiols/Sulfides: 8.69 ± 6.16 ×10^4
Stool odor compounds [1]; [4]
  Alcohols: 12.3 ± 0.9 ×10^5
  Aldehydes: 0.56 ± 0.51 ×10^3
  Carboxylic acids: 22.7 ± 32.2 ×10^4
  Esters: 34.1 ± 34.4 ×10^5
  Heterocycles: 1.19 ± 0.54 ×10^4
  Indoles: 2.0 ± 0.86 ×10^4
  Ketones: 201 ± 66.5 ×10^6
  Phenols: 9.17 ± 5.64 ×10^4
  Thiols/Sulfides: 5.14 ± 2.4 ×10^4
Stool odor compounds [1]; [5]
  Alcohols: 23.4 ± 14.3 ×10^5
  Aldehydes: 1.09 ± 1.29 ×10^3
  Carboxylic acids: 27.2 ± 21.2 ×10^4
  Esters: 32.6 ± 0.9 ×10^5
  Heterocycles: 1.13 ± 0.49 ×10^4
  Indoles: 1.78 ± 2.45 ×10^4
  Ketones: 160 ± 63.1 ×10^6
  Phenols: 4.08 ± 3.58 ×10^4
  Thiols/Sulfides: 4.91 ± 1.3 ×10^4
Stool odor compounds [1]; dogs, 400-900 ppm added zinc vs control food
  Effect of addition of zinc to the food on stool odor compound levels (in words): decreased levels of phenols, thiols and sulfides and indoles
Stool odor compounds [2]; [6]
  Alcohols: 13.2 ± 27 ×10^4
  Aldehydes: 5.6 ± 3.6 ×10^4
  Carboxylic acids: 317 ± 160 ×10^4
  Esters: 78.4 ± 22.9 ×10^4
  Heterocycles: 0.62 ± 0.13 ×10^4
  Indoles: 0.39 ± 0.3 ×10^4
  Ketones: 25.6 ± 8.14 ×10^4
  Phenols: 10.3 ± 4.3 ×10^4
  Thiols/Sulfides: 6.2 ± 2.3 ×10^4
Stool odor compounds [2]; [7]
  Alcohols: 6.87 ± 10.8 ×10^4
  Aldehydes: 3.6 ± 1.7 ×10^4
  Carboxylic acids: 225 ± 78.1 ×10^4
  Esters: 76.9 ± 47.5 ×10^4
  Heterocycles: 0.62 ± 0.22 ×10^4
  Indoles: 0.88 ± 0.62 ×10^4
  Ketones: 60.7 ± 38.1 ×10^4
  Phenols: 12.6 ± 4.7 ×10^4
  Thiols/Sulfides: 7.7 ± 3.4 ×10^4
Stool odor compounds [2]; [8]
  Alcohols: 15.1 ± 23.3 ×10^4
  Aldehydes: 1.9 ± 1.6 ×10^4
  Carboxylic acids: 146 ± 144 ×10^4
  Esters: 28.7 ± 1.8 ×10^4
  Heterocycles: 0.46 ± 0.17 ×10^4
  Indoles: 2.3 ± 1.5 ×10^4
  Ketones: 42.2 ± 26.2 ×10^4
  Phenols: 7.2 ± 2.7 ×10^4
  Thiols/Sulfides: 6.8 ± 3.9 ×10^4
Stool odor compounds [2]; cats, 860-1800 ppm added zinc vs control food
  Effect of addition of zinc to the food on stool odor compound levels (in words): decreased stool levels of heterocycles, indoles, aldehydes and phenols
flatulence
  number of flatulent episodes: decreased
  odor of gas: decreased
  total gas production: decreased
